Experimental findings from US20200031820A1, “3-CARBOXYLIC ACID PYRROLES AS NRF2 REGULATORS” (GLSXOSMITHKLINE INTELLECTUAL PROPERTY DEVELOPMENT LIMITED, priority 2016, published 2020) are described below.

In assay [1] the test system is NQO1 specific enzyme activity in BEAS-2B cells (marker for NRF2 activation). The experiment in a line: Beas2B NQO1 MTT Assay. In kind it is cell-based. The settings on record: Homo sapiens, NQO1 specific activity induction, 48 hours with compound. From the text: NAD(P)H:quinone oxidoreductase 1 (NQO1), also called DT diaphorase, is a homodimeric FAD-containing enzyme that catalyses obligatory NAD(P)H-dependent two-electron reductions of quinones and protects cells against the toxic and neoplastic effects of free radicals and reactive oxygen species arising from one-electron reductions. The transcription of NQO1 is finely regulated by NRF2, and thus NQO1 activity is a good marker for NRF2 activation. On day one, frozen BEAS-2B cells (ATCC) were thawed in a water bath, counted, and re-suspended at a concentration of 250,000 cells/mL. Fifty microliters of cells were plated in 384 well black clear-bottomed plates. Plates were incubated at 37° C., 5% CO2 overnight. On day two, plates were centrifuged and 50 nL of compound or controls were added to the cells. Plates were then incubated at 37° C., 5% CO2 for 48 hours. On day four, medium was aspirated from the plate and crude cell lysates were made by adding 13 uL of 1× Cell Signaling Technologies lysis buffer with 1 Complete, Mini, EDTA-free Protease Inhibitor Tablet (Roche) for each 10 mL of lysis buffer. After lysis plates were incubated for 20 minutes at room temperature. Two microliters of lysate were removed for use in Cell Titer Glo assay (Promega) and MTT cocktail was prepared (Prochaska et. al. 1998) for measurement of NQO1 activity. Fifty microliters of MTT cocktail was added to each well, plate was centrifuged, and analysed on an Envision plate reader (Perkin Elmer) using Absorbance 570 nm label for 30 minutes. Product formation was measured kinetically and the pEC50 of NQO1 specific activity induction was calculated by plotting the change in absorbance (Delta OD/min) versus the log of compound concentration followed by 3-parameter fitting.
EC50s <1 nM (+++++), EC50s 10 nM-1 nM (++++), EC50s 10-100 nM (+++), EC50s 100 nM-1 μM (++), EC50s 1-10 μM (+), EC50s >10 μM (−), or were not determined (ND).

The target in assay [2] is T1, full length NRF2 protein and full length Keap1 protein (Homo sapiens, UniProt Q14145).
T1 construct: full length NRF2 protein and full length Keap1 protein; His
The experiment in a line: NRF2-Keap1 TR-FRET Low Protein Assay. In kind it is binding. The settings on record: Keap1 FlagHis, biotin-NRF2. From the text:
NRF2-Keap1 TR-FRET Low Protein Assay In the NRF2-Keap1 TR-FRET (time-resolved fluorescence resonance energy transfer) low protein assay, full length NRF2 protein and full length Keap1 protein (Keap1 exists a dimer) are used. The assay detects a compound's ability to displace the binding of Keap1 FlagHis with biotinylated Avi-NRF2 protein. Biotin-NRF2 binds to streptavidin-europium (a component of the detection mix) and Keap1 FlagHis is recognized by anti-Flag APC (allophycocyanin) antibody (also a component of the detection mix). If binding occurs between the two proteins, there will be an energy transfer from the Eu+3 (donor) at 615 nm to the APC (acceptor) at 665 nm. A potential NRF2 inhibitor will cause a reduction in the TR-FRET signal by interfering with the binding of Keap1 to NRF2.
Ten nanoliters of 100× compound dose response curves (serial 3-fold dilutions) in DMSO were stamped using an Echo liquid handling system (Labcyte) into 384-well, low volume, black assay plates (Greiner, #784076), with DMSO in columns 6 and 18. An additional 90 nl DMSO was added to each well, to bring the total volume to 100 nl per well. The top concentration of compound was located in columns 1 and 13, with the serial dilutions going across the row. All reagents were diluted in assay buffer (50 mM Tris, pH 8.0, 5 mM MgCl2, 100 mM NaCl, 0.005% BSA, 1 mM DTT, and 2 mM CHAPS. The BSA, DTT, and CHAPS were added to the assay buffer on the day of assay. Using a Multidrop Combi (Thermo Electron Corporation) equipped with a metal tip dispenser, 5 ul of 1.25 nM Keap1 FlagHis protein was added to all wells of the compound plate, with the exception of the wells in column 18. Wells in column 18 received 5 ul of assay buffer instead. Plates were centrifuged at 500 rpm for 1 minute, covered with a plate lid, and incubated at 37° C. for 2.25 hours. Plates were then removed from the incubator and allowed to cool to RT for 15 minutes. Five microliters of 2.5 nM biotin-NRF2 protein was then added to all wells of the plates and the plates were spun at 500 rpm for 1 minute, followed by incubating at 4° C. for 1.25 hours. The plates were then allowed to warm to RT for 15 minutes, followed by the addition of 10 ul of detection mix (1 nM Streptavidin Eu+ W1024 and 5 ug/ml mouse anti-DYKDDDDK IgG conjugated to SureLight APC antibody; both from Columbia Biosciences) to all wells. Plates were spun at 500 rpm for 1 minute, incubated for 1 hour at RT, and read on an Envision plate reader using a 320 nm excitation filter and 615 nm and 665 nm emission filters. Compound response (% inhibition) and potency (pIC50) were calculated based on the ratio of the two emissions (665 nm/615 nm) and then the transformed data is normalized against controls in the assay (control 1=1% DMSO in the presence of NRF2 and Keap1 protein and control 2=1% DMSO in the presence of only the NRF2 protein). Data analysis was handled using the software package Abase XE (Surrey, United Kingdom). The % inhibition values were calculated from the ratio (transformed) data by the equation:
100−(100*(compound response−average control 2)/(average control 1−average control2)).
For calculation of pIC50s, Abase XE used a four-parameter equation.
IC50s<10 nM (+++++), IC50s 10-100 nM (++++), IC50s 100 nM-1 uM (+++), IC50s 1-10 uM (++). & IC50s 10 uM-100 uM (+), IC50s >100 uM (−), or were not determined (ND).

T1 sequence (Q14145 whole entry): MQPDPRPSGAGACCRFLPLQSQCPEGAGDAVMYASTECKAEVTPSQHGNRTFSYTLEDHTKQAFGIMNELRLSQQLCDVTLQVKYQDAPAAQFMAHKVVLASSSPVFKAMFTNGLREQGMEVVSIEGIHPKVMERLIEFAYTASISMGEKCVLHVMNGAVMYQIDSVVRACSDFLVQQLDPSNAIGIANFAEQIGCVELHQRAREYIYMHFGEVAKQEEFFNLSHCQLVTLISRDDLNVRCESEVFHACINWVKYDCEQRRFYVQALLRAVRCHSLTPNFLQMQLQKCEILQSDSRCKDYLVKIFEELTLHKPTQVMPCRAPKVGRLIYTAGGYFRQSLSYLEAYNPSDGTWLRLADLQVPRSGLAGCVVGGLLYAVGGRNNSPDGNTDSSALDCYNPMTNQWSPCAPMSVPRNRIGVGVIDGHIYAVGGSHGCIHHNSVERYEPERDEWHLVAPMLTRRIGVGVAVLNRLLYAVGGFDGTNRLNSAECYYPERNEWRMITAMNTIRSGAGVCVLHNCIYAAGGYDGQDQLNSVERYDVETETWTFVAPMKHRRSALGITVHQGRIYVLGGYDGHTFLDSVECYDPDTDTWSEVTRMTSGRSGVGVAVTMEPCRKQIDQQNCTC

What is called EC50 is the concentration needed to bring the measured effect to its halfway point. `Cn1cc([C@@H]2C[C@H]2c2c(C(=O)O)ccn2-c2cccc(CN3Cc4cc(F)ccc4OC(C)(C)C3)c2)nn1` (racemic) [Example 19]: the EC50 in assay [1] and in assay [2] was 0.1 to 1 µM each time.

As to `Cn1cc([C@@H]2C[C@H]2c2c(C(=O)O)ccn2-c2cccc(CN3Cc4cc(Br)ccc4OC(C)(C)C3)c2)nn1` (racemic) [Example 20], the EC50 in assay [1] and in assay [2] was 0.1 to 1 µM throughout.

Consider `Cn1cc([C@@H]2C[C@H]2c2c(C(=O)O)ccn2-c2cccc(CN3Cc4ccccc4CC(C)(C)C3)c2)nn1` (racemic) [Example 21], for which the EC50 in assay [1] and in assay [2] was 0.1 to 1 µM each time.

Consider `CCCC[C@H]1Cc2ccccc2S(=O)(=O)N(Cc2cccc(-n3ccc(C(=O)O)c3[C@@H]3C[C@H]3c3cn(C)nn3)c2)C1` [Example 3, 1-(3-(((S)-4-butyl-1,1-dioxido-4,5-dihydrobenzo[f][1,2]thiazepin-2(3H)-yl)methyl)phenyl)-2-((1R,2R)-2-(1-methyl-1H-1,2,3-triazol-4-yl)cyclopropyl)-1H-pyrrole-3-carboxylic acid], for which the EC50 in assay [1] and in assay [2] was 0.01 to 0.1 µM throughout.

As to `CCCC[C@H]1Cc2ccc(C(F)(F)F)cc2S(=O)(=O)N(Cc2cccc(-n3ccc(C(=O)O)c3[C@@H]3C[C@H]3c3cn(C)nn3)c2)C1` [Example 6, 1-(3-(((S)-4-butyl-1,1-dioxido-8-(trifluoromethyl)-4,5-dihydrobenzo[f][1,2]thiazepin-2(3H)-yl)methyl)phenyl)-2-((1R,2R)-2-(1-methyl-1H-1,2,3-triazol-4-yl)cyclopropyl)-1H-pyrrole-3-carboxylic acid], the figures for the EC50 in assay [1] and in assay [2] were less than 0.001 µM and 0.01 to 0.1 µM, respectively.

Take `CC[C@H]1Cc2cc(C(F)(F)F)ccc2S(=O)(=O)N(Cc2cccc(-n3ccc(C(=O)O)c3[C@@H]3C[C@H]3c3cn(C)nn3)c2)C1` [Example 7, 1-(3-(((S)-4-ethyl-1,1-dioxido-7-(trifluoromethyl)-4,5-dihydrobenzo[f][1,2]thiazepin-2(3H)-yl)methyl)phenyl)-2-((1R,2R)-2-(1-methyl-1H-1,2,3-triazol-4-yl)cyclopropyl)-1H-pyrrole-3-carboxylic acid]: the values for the EC50 in assay [1] and in assay [2] were 0.001 to 0.01 µM and 0.01 to 0.1 µM, respectively.

Consider `C[C@H]1Cc2ccc(Br)cc2S(=O)(=O)N(Cc2cccc(-n3ccc(C(=O)O)c3[C@@H]3C[C@H]3c3cn(C)nn3)c2)C1` [Example 8, 1-(3-(((S)-8-bromo-4-methyl-1,1-dioxido-4,5-dihydrobenzo[f][1,2]thiazepin-2(3H)-yl)methyl)phenyl)-2-((1R,2R)-2-(1-methyl-1H-1,2,3-triazol-4-yl)cyclopropyl)-1H-pyrrole-3-carboxylic acid], for which the figures for the EC50 in assay [1] and in assay [2] were 0.001 to 0.01 µM and 0.01 to 0.1 µM, respectively.

Regarding `CC[C@H]1Cc2ccc(Br)cc2S(=O)(=O)N(Cc2cccc(-n3ccc(C(=O)O)c3[C@@H]3C[C@H]3c3cn(C)nn3)c2)C1` [Example 9, 1-(3-(((S)-8-bromo-4-ethyl-1,1-dioxido-4,5-dihydrobenzo[f][1,2]thiazepin-2(3H)-yl)methyl)phenyl)-2-((1R,2R)-2-(1-methyl-1H-1,2,3-triazol-4-yl)cyclopropyl)-1H-pyrrole-3-carboxylic acid], the results for the EC50 in assay [1] and in assay [2] were less than 0.001 µM and less than 0.01 µM, respectively.

With `C[C@H](Oc1cccc(-c2cccc(-n3ccc(C(=O)O)c3[C@H]3C[C@@H]3c3cn(C)nn3)c2)c1)C1CCCCC1` [Example 17, 1-(3′-((S)-1-cyclohexylethoxy)-[1,1′-biphenyl]-3-yl)-2-((1S,2S)-2-(1-methyl-1H-1,2,3-triazol-4-yl)cyclopropyl)-1H-pyrrole-3-carboxylic acid], the EC50 was 0.01 to 0.1 µM in assay [1] and 0.1 to 1 µM in assay [2].

On to `CCC[C@@H]1CCCCN1C(=O)c1cccc(-c2cccc(-n3ccc(C(=O)O)c3[C@@H]3C[C@H]3c3cn(C)nn3)c2)c1Br` [Example 22], for which the EC50 in assay [1] and in assay [2] was 0.01 to 0.1 µM in each case.

Regarding `CCC[C@@H]1CCCCN1C(=O)c1cc(F)cc(-c2cccc(-n3ccc(C(=O)O)c3[C@@H]3C[C@H]3c3cn(C)nn3)c2)c1` [Example 23], the concentration giving a half-maximal response (EC50) in assay [1] and in assay [2] was 0.01 to 0.1 µM throughout.

Consider `CCC[C@@H]1CCCCN1C(=O)c1cccc(-c2cccc(-n3ccc(C(=O)O)c3[C@@H]3C[C@H]3c3cn(C)nn3)c2)c1C(F)(F)F` [Example 24], for which the EC50 in assay [1] and in assay [2] was 1 to 10 µM in each case.
